Values belong to the molecule of their own block, whether it stands above or below them.
Tests used:
[1] = molecular target: T1, SLC25A45-8xHis (Homo sapiens, UniProt Q8N413); experiment: uptake by isolated mitochondria, LC-MS; type: biochemical; settings: 10 μM; pH 7.25, room temperature; labelled compound
T1 construct: SLC25A45-Xa-8xHis, tag kept; in mitochondria isolated from FreeStyle 293-F cells
T1 sequence (Q8N413 1-288): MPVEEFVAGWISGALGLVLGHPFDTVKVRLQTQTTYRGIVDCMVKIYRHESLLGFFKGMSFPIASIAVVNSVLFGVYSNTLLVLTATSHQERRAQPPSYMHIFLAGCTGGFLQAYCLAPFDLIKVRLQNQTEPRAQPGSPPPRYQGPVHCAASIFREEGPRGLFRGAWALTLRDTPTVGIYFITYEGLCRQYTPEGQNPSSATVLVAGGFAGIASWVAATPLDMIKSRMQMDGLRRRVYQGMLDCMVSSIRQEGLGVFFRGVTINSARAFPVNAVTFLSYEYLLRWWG

[2] = molecular target: T2, purified human SLC25A45 (Homo sapiens, UniProt Q8N413); experiment: nanoDSF thermostability shift; type: binding; settings: 10 mM compound, 20 mM HEPES pH 7.0, 50 mM NaCl, cardiolipin/LMNG, 25-95 °C at 4 °C per min
T2 construct: codon-optimised; N-terminal extension GKPRTSPK (residues 14-21 of human oxoglutarate carrier), eight-His tag and Factor Xa site, Factor Xa cleaved; from S. cerevisiae BJ2168 mitochondria; 33,118 Da; in lauryl maltose neopentyl glycol / tetraoleoyl cardiolipin
T2 sequence (Q8N413 1-288): T1 sequence (Q8N413 1-288)

[3] = molecular target: T1, SLC25A45-8xHis; experiment: competition of [2H9]-TML uptake by isolated mitochondria, LC-MS; type: biochemical; settings: 10 mM unlabelled TML against 10 μM [2H9]-TML, 10 min, pH 7.25, room temperature

Molecule: CN(C)C(=N)NCCC[C@H](N)C(=O)O [[^2H6]-ADMA]
- uptake by isolated mitochondria, LC-MS [1]: SLC25A45 was also required for the mitochondrial uptake of the deuterium-labeled dimethylarginine isomers

Molecule: CN=C(NC)NCCC[C@H](N)C(=O)O [[^2H6]-SDMA]
- uptake by isolated mitochondria, LC-MS [1]: SLC25A45 was also required for the mitochondrial uptake of the deuterium-labeled dimethylarginine isomers

- ΔTm [2]: 3.4 °C
Molecule: C[N+](C)(C)CCCC[C@H](N)C(=O)O [trimethyllysine]
- competition of [2H9]-TML uptake by isolated mitochondria, LC-MS [3]: mitochondrial import of [^2H9]-TML was abolished by co-incubation with excess unlabeled trimethyllysine

- ΔTm ([2]; isomer not told): 7.5 °C
Molecule: dimethylarginine

Source: PMC12594208, “SLC25A45 is required for mitochondrial uptake of methylated amino acids and de novo carnitine biosynthesis” (Molecular Cell, 2025)
